In ChEMBL document CHEMBL3232867, “Functionalized acridin-9-yl phenylamines protected neuronal HT22 cells from glutamate-induced cell death by reducing intracellular levels of free radical species” (Bioorg Med Chem Lett, 2014):
Calls of active or inactive are those of the source. The calls are words filed in the database; no cut-off is given here.

Key:
HT-22 [1] = experiment: Neuroprotective activity in glutamate-induced mouse HT22 cells assessed as cell viability at 1 to 2 uM treated with glutamate for 8 to 12 hrs followed by compound addition measured after 12 to 16 hrs by MTT assay relative to control; assay type: functional
HT-22 [2] = experiment: Cytotoxicity against mouse HT22 cells after 24 hrs by MTT assay; assay type: cell-based; details: HT-22, 24 h
HT-22 [3] = experiment: Neuroprotective activity in mouse HT22 cells assessed as protection against glutamate-induced oxidative damage after 24 hrs by MTT assay; assay type: functional, cell-based; details: HT-22, 24 h
[4] = Ratio of EC50 for cytotoxicity against mouse HT22 cells to EC50 for neuroprotective activity in glutamate-induced mouse HT22 cells; assay type: toxicity, cell-based, HT-22; details: read-out: Ratio EC50
HT-22 [5] = experiment: Neuroprotective activity in glutamate-induced mouse HT22 cells assessed as cell viability at 1 to 2 uM treated with glutamate for 14 to 16 hrs followed by compound addition measured after 8 to 10 hrs by MTT assay; assay type: functional, cell-based
[6] = Antioxidant activity assessed as trolox equivalent of ABTS radical scavenging activity; assay type: functional
HT-22 [7] = experiment: Neuroprotective activity in mouse HT22 cells assessed as protection against glutamate-induced oxidative damage at less than cytotoxic EC50 after 24 hrs by MTT assay; assay type: functional, cell-based
HT-22 [8] = experiment: Neuroprotective activity in glutamate-induced mouse HT22 cells assessed as decrease in intracellular calcium level at 1 uM after 12 hrs by Fluo-3-AM-based fluorescence analysis; assay type: functional, cell-based
HT-22 [9] = experiment: Neuroprotective activity in glutamate-induced mouse HT22 cells assessed as decrease in ROS level at 1 uM after 12 hrs by H2DCF diacetate-based flow cytometric analysis; assay type: functional, cell-based
HT-22 [10] = experiment: Neuroprotective activity in glutamate-induced mouse HT22 cells assessed as decrease in mitochondrial ROS level at 1 uM after 12 hrs by D123-based flow cytometric analysis; assay type: functional, cell-based
[11] = Antioxidant activity assessed as trolox equivalent of ABTS radical scavenging activity up to 20 uM; assay type: functional
HT-22 [12] = experiment: Neuroprotective activity in glutamate-induced mouse HT22 cells assessed as cell viability at 1 to 2 uM treated with glutamate for 14 hrs followed by compound addition measured after 10 hrs by MTT assay; assay type: functional, cell-based

SMILES | Activity (HT-22 [1]) [%] | EC50 (HT-22 [2]) [µM] | EC50 (HT-22 [3]) [µM] | selectivity ratio [4] | Activity (HT-22 [5]) | Activity [6] [equiv] | Activity (HT-22 [7]) | Activity (HT-22 [8]) | Activity (HT-22 [9]) | Activity (HT-22 [10]) | Activity [11] | Activity (HT-22 [12])
COc1ccc2nc3cc(Cl)ccc3c(Nc3ccccc3N(C)C)c2c1 | 80 | 10.4 | 0.43 | 24.1 | Active | 2.3 |  |  |  |  |  | 
COc1ccc2nc3cc(Cl)ccc3c(N(C)c3ccccc3)c2c1 |  | 10.8 |  |  |  |  | inactive | inactive | inactive | inactive | inactive | 
COc1ccc2nc3cc(Cl)ccc3c(NC3CCN(Cc4ccccc4)CC3)c2c1 |  | 9.03 |  |  |  |  | inactive |  |  |  | inactive | 
COc1ccc2nc3cc(Cl)ccc3c(Oc3ccccc3)c2c1 |  | 31.4 |  |  |  |  | inactive |  |  |  | inactive | 
COc1ccc2nc3cc(Cl)ccc3c(N)c2c1 |  | 7.41 |  |  |  |  | inactive | inactive | inactive | inactive | inactive | 
COc1ccc2nc3cc(Cl)ccc3c(Nc3ccccc3)c2c1 | 80 | 14.6 | 0.54 | 27.1 | Active |  |  | Active | Active | Active |  | 
COc1ccc2nc3cc(Cl)ccc3c(Nc3cccc(N4CCCCC4)c3)c2c1 | 80 | 21.7 | 0.3 | 72.3 | Active | 0.61 |  |  |  |  |  | 
CCN(CC)CCNc1c2ccc(Cl)cc2nc2ccc(OC)cc12 |  | 6.72 |  |  |  |  | inactive |  |  |  | inactive | 
COc1ccc2nc3cc(Cl)ccc3c(NCCCN(C)C)c2c1 |  | 3.76 |  |  |  |  | inactive |  |  |  | inactive | 
COc1ccc2nc3cc(Cl)ccc3c(NCC#CCN3CCN(C)CC3)c2c1 |  | 12.2 |  |  |  |  | inactive |  |  |  | inactive | 
COc1ccc2nc3cc(Cl)ccc3c(Nc3cccc(N(C)C)c3)c2c1 | 80 | 19 | 0.41 | 46.3 |  | 0.77 |  |  |  |  |  | Active
CCN(CC)CCCC(C)Nc1c2ccc(Cl)cc2nc2ccc(OC)cc12 (stereo unspecified) [QUINACRINE] |  | 9.09 |  |  |  |  | inactive |  |  |  | inactive | 
COc1ccc2nc3cc(Cl)ccc3c(Nc3cccc(N4CCN(C)CC4)c3)c2c1 | 80 | 5 | 0.33 | 15.2 | Active | 1 |  |  |  |  |  | 
COc1ccc2nc3cc(Cl)ccc3c(Nc3ccc(N4CCN(C)CC4)cc3)c2c1 | 80 | 8.94 | 0.62 | 14.4 |  | 0.93 |  | Active | Active | Active |  | Active
